# Test results from patent publication US5665586A, “Protease from Streptomyces fradiae” (Shionogi & Co., Ltd., priority 1992, dated 1997).
# Read-outs that look alike come from different tables or passages of the source. Where a SMILES comes first, the peptide text is derived from it. The star is where a group is joined. pNA = O=[N+]([O-])c1ccc(N*)cc1; Cbz = O=C(OCc1ccccc1)*; Boc = CC(C)(C)OC(=O)*; CH2Cl = ClC*
# Tests used:
# SFase [1] = molecular target: T1, SFase (Streptomyces fradiae, UniProt Q03424); assay: Substrate specificity of SFase on synthetic pNA substrates (p-nitroaniline release, A410 nm); type: biochemical; details: 50 mM Tris-HCl, 2 mM CaCl2, pH 7.5, 25° C.
# Protocol: 1. […] The present enzyme was added thereto to cause a reaction at a temperature of 25° C. By measuring the absorbance (410 nm) of p-nitroaniline released through the enzymatic reaction into the reaction solution, the amount (A410 nm) of p-nitroaniline released per mg each substrate per 1 minute was calculated.
# SFase [2] = molecular target: T1, SFase; assay: Effect of inhibitors on SFase (residual activity, substrate Z-Phe-Leu-Glu-pNA); type: biochemical
# [3] = pH 7.5, read-out: Residual Activity (%)
# [4] = inhibitor 0.5 mM, preincubation 37° C., 1 hour, enzyme 1.0 μg/ml, 0.2 mM Z-Phe-Leu-Glu-pNA, pH 7.5, 25° C., read-out: Residual Activity (%)
# T1 sequence (Q03424 171-357): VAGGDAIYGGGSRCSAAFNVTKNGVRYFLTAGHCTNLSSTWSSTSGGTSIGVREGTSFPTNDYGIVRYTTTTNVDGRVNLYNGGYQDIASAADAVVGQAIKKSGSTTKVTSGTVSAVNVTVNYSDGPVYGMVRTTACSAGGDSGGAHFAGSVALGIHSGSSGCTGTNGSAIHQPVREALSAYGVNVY
smiles,measurement,setting,value
C[C@H](NC(=O)CCC(=O)O)C(=O)N[C@@H](C)C(=O)N[C@@H](C)C(=O)Nc1ccc([N+](=O)[O-])cc1 [Suc--Ala--Ala--Ala--pNA],amount (A410 nm) of p-nitroaniline released per mg per 1 minute,"SFase [1]; substrate 0.20 mM, no solvent",0 A 410 nm /mg/min
"O=C(O)CN(CCN(CC(=O)O)CC(=O)O)CC(=O)O [EDTA, ethylenediaminetetraacetic acid]",inhibition of SFase (in words),SFase [2],not inhibited
same,remaining activity at 100 µM,SFase [2]; [3],110%
same,remaining activity at 1000 µM,SFase [2]; [3],113%
same,remaining activity at 10000 µM,SFase [2]; [3],126%
"Cc1ccc(S(=O)(=O)N[C@@H](Cc2ccccc2)C(=O)CCl)cc1 [TPCK, Tosyl-Phe-chloromethylketone]",inhibition of SFase (in words),SFase [2]; Table 2,inhibited by neither
same,remaining activity at 500 µM,SFase [2]; [4],101%
C[C@H](NC(=O)OC(C)(C)C)C(=O)N[C@@H](C)C(=O)N[C@@H](CC(=O)O)C(=O)Nc1ccc([N+](=O)[O-])cc1 [Boc--Ala--Ala--Asp--pNA] (Boc-Ala-Ala-Asp-pNA),amount (A410 nm) of p-nitroaniline released per mg per 1 minute,"SFase [1]; substrate 0.20 mM, DMF 2.0%",14.3 A 410 nm /mg/min
C[C@H](NC(=O)[C@H](C)NC(=O)[C@H](C)NC(=O)OC(C)(C)C)C(=O)CCl [Boc--Ala--Ala--Ala--CK],remaining activity at 500 µM,SFase [2]; [4],102%
CC(C)C[C@H](NC(=O)[C@H](C)NC(=O)[C@H](C)NC(=O)OCc1ccccc1)C(=O)Nc1ccc([N+](=O)[O-])cc1 [Z--Ala--Ala--Leu--pNA] (Cbz-Ala-Ala-Leu-pNA),amount (A410 nm) of p-nitroaniline released per mg per 1 minute,"SFase [1]; substrate 0.125 mM, DMF 5.0%",0 A 410 nm /mg/min
CC(C)C[C@H](NC(=O)[C@H](Cc1ccccc1)NC(=O)OCc1ccccc1)C(=O)N[C@@H](CCC(=O)O)C(=O)CCl [Z--Phe--Leu--Glu--CK] (Cbz-Phe-Leu-Glu-CH2Cl),remaining activity at 500 µM,SFase [2]; [4],0%
O=C(CNC(=O)OCc1ccccc1)N[C@@H](CO)C(=O)Nc1ccc([N+](=O)[O-])cc1 [Z--Gly--Ser--pNA] (Cbz-Gly-Ser-pNA),amount (A410 nm) of p-nitroaniline released per mg per 1 minute,"SFase [1]; substrate 0.20 mM, DMF 2.0%",0 A 410 nm /mg/min
"Cc1ccc(S(=O)(=O)N[C@@H](CCCCN)C(=O)CCl)cc1 [TLCK, Tosyl-Lys-chloromethylketone]",inhibition of SFase (in words),SFase [2],inhibited by neither
same,remaining activity at 500 µM,SFase [2]; [3],112%
C[C@H](NC(=O)OC(C)(C)C)C(=O)N[C@@H](C)C(=O)N[C@@H](CCC(=O)O)C(=O)Nc1ccc([N+](=O)[O-])cc1 [Boc--Ala--Ala--Glu--pNA] (Boc-Ala-Ala-Glu-pNA),amount (A410 nm) of p-nitroaniline released per mg per 1 minute,"SFase [1]; substrate 0.20 mM, DMF 2.0%",126.2 A 410 nm /mg/min
"CC(C)C[C@H](NC(=O)[C@H](Cc1ccccc1)NC(=O)OCc1ccccc1)C(=O)N[C@@H](CCC(=O)O)C(=O)Nc1ccc([N+](=O)[O-])cc1 [Z--Phe--Leu--Glu--pNA, Z-Phe-Leu-Glu-pNA] (Cbz-Phe-Leu-Glu-pNA)",amount (A410 nm) of p-nitroaniline released per mg per 1 minute,"SFase [1]; substrate 0.20 mM, DMF 0.2%",319.1 A 410 nm /mg/min
CC(C)C[C@H](N)C(=O)Nc1ccc([N+](=O)[O-])cc1 [Leu--pNA],amount (A410 nm) of p-nitroaniline released per mg per 1 minute,"SFase [1]; substrate 2.00 mM, no solvent",0 A 410 nm /mg/min
N=C(N)NCCC[C@H](NC(=O)c1ccccc1)C(=O)Nc1ccc([N+](=O)[O-])cc1 [Bz--Arg--pNA],amount (A410 nm) of p-nitroaniline released per mg per 1 minute,"SFase [1]; substrate 0.50 mM, DMSO 1.0%",0 A 410 nm /mg/min
O=C(N[C@@H](Cc1ccc(O)cc1)C(=O)Nc1ccc([N+](=O)[O-])cc1)c1ccccc1 [Bz--Tyr--pNA],amount (A410 nm) of p-nitroaniline released per mg per 1 minute,"SFase [1]; substrate 0.02 mM, DMF 2.0%",0 A 410 nm /mg/min
"c1cnc2c(c1)ccc1cccnc12 [OP, o-phenanthroline]",inhibition of SFase (in words),SFase [2]; Table 2,not inhibited
same,remaining activity at 100 µM,"SFase [2]; inhibitor 0.1 mM, preincubation 37° C., 1 hour, enzyme 1.0 μg/ml, 0.2 mM Z-Phe-Leu-Glu-pNA, pH 7.5, 25° C., read-out: Residual Activity (%)",106%
same,remaining activity at 1000 µM,"SFase [2]; inhibitor 1.0 mM, preincubation 37° C., 1 hour, enzyme 1.0 μg/ml, 0.2 mM Z-Phe-Leu-Glu-pNA, pH 7.5, 25° C., read-out: Residual Activity (%)",108%
same,remaining activity at 10000 µM,"SFase [2]; inhibitor 10.0 mM, preincubation 37° C., 1 hour, enzyme 1.0 μg/ml, 0.2 mM Z-Phe-Leu-Glu-pNA, pH 7.5, 25° C., read-out: Residual Activity (%)",104%
O=C(N[C@@H](Cc1c[nH]c2ccccc12)C(=O)Nc1ccc([N+](=O)[O-])cc1)OCc1ccccc1 [Z--Trp--pNA],amount (A410 nm) of p-nitroaniline released per mg per 1 minute,"SFase [1]; substrate 0.20 mM, DMF 2.0%",0 A 410 nm /mg/min
CC(C)C[C@H](NC(=O)[C@H](Cc1ccccc1)NC(=O)OC(C)(C)C)C(=O)N[C@@H](CCC(=O)O)C(=O)CCl [Boc-Phe-Leu-Glu-chloromethylketone] (Boc-Phe-Leu-Glu-CH2Cl),inhibition of SFase (in words),SFase [2]; Table 2,completely inhibited
